These results are taken from ChEMBL document CHEMBL1201862, “PubChem BioAssay data set” (2004).

What all share (experiment): inhibition of tumour cell growth, NCI panel, 48 h
In assay [1] the test system is NCI-H23.
For assay [2], the system named is NCI-H460.
The test system of assay [3] is HCT-15.
Assay [4] relates to HT-29.
Assay [5] concerns M14.
In assay [6] the test system is A549.
In assay [7] the test system is RPMI-8226.
For assay [8], the system named is OVCAR-3.
Assay [9] relates to HOP-92.
Assay [10] relates to SK-MEL-5.
Assay [11] has as its system DU-145.
Assay [12] relates to EKVX.
Assay [13] has as its system SNB-75.
The test system of assay [14] is MDA-MB-435.
Assay [15] relates to SF-539.
Assay [16] deals with NCI-H522.
The test system of assay [17] is ACHN.
In assay [18] the test system is IGROV-1.
The subject of assay [19] is PC-3.
The test system of assay [20] is OVCAR-8.

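Protocol summary: plate cells (96-well), add compound at 5 concentrations, incubate 48 h, interpolate endpoints linearly. Abbreviation: GI50, concentration required for 50% inhibition of growth.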 Calls of active or inactive are those of the source. No stated cut-off is given here; in the data, active = GI50 up to about 1.1 µM and inactive = higher.

In the case of `CCOC(=O)NC(NCC(O)c1ccccc1)(C(F)(F)F)C(F)(F)F` (configuration not stated), the GI50 in assay [1] was > 100 µM (inactive); in assay [2], > 100 µM (inactive); in assay [3] it was above 100 µM; in assay [4], > 100 µM (inactive); in assay [5], > 100 µM (inactive); in assay [6], > 100 µM (inactive). Besides, the GI50 in assay [7], in assay [8], in assay [9], in assay [10], in assay [11] and in assay [12] was > 100 µM (inactive) throughout. For the same compound, the GI50 in assay [13], in [14], in [15], in assay [16], in [17] and in assay [18] was > 100 µM (inactive) in each case.

Regarding `NC(=O)c1cnc2sc3ccccc3n2c1=O`, the GI50 in assay [2] was > 100 µM (inactive); in [3], above 100 µM; in assay [4], > 100 µM (inactive); in assay [5] it was > 100 µM (inactive); in assay [6], 67.9 µM (inactive); in assay [7], > 100 µM (inactive). In addition, the GI50 is > 100 µM (inactive) in [8]; 91.4 µM (inactive) in assay [9]; > 100 µM (inactive) in assay [10]; > 100 µM (inactive) in assay [11]; 21.9 µM (inactive) in assay [12]; > 100 µM (inactive) in assay [13]. The GI50 in [15] is > 100 µM (inactive); in assay [19], > 100 µM (inactive); in [20], > 100 µM (inactive); in [16], 74 µM (inactive); in assay [17], > 100 µM (inactive); in assay [18], > 100 µM (inactive).

Regarding `S=C1NNC(=S)NN1`, the GI50 in assay [1] was 0.251 µM (active); in assay [2] it was > 1 µM (active); in assay [3], above 1 µM; in assay [4] it was 0.23 µM (active); in assay [5] it was 0.533 µM (active); in assay [6], > 1 µM (active). For the same compound, the GI50 in assay [7] was 0.288 µM (active); in assay [8], > 1 µM (active); in assay [9] it was > 1 µM (active); in [10], 0.887 µM (active); in assay [11] it was 0.316 µM (active); in [12], > 1 µM (active). The GI50 in assay [15] is > 1 µM (active); in assay [19], > 1 µM (active); in assay [20], > 1 µM (active); in assay [16] it was 0.432 µM (active); in assay [17] it was 0.582 µM (active); in assay [18] it was 0.436 µM (active).

As for `CC(C)(C)[Si](C)(C)OCCCCC1CC2(S(=O)(=O)C3=CC=C=C=C3)ON1CC2S(=O)(=O)c1ccccc1` (configuration not stated), the GI50 in assay [1] is > 100 µM (inactive); in [2], > 100 µM (inactive); in assay [3], above 100 µM; in assay [4], > 100 µM (inactive); in assay [5] it was > 100 µM (inactive); in [6] it was > 100 µM (inactive). Further, the GI50 in [7], in [8], in assay [9], in [10], in assay [11] and in assay [12] was > 100 µM (inactive) each time. Besides, the GI50 in [13], in assay [14], in assay [15], in assay [20], in assay [17] and in assay [18] was > 100 µM (inactive) in each case.

In the case of `CC(C)CCCC(=O)CCCCCCC(=O)CCN(O)C(=O)C(N)CO` (configuration not stated), the GI50 in assay [1] was 15.1 µM (inactive); in [3] it was 15.3 µM; in assay [4], 18.7 µM (inactive); in assay [5], 20.2 µM (inactive); in assay [7], 21.7 µM (inactive); in assay [8], 17.3 µM (inactive). For the same compound, the GI50 in assay [10] was 17.5 µM (inactive); in [11], 18.3 µM (inactive); in assay [12] it was 10.6 µM (inactive); in assay [13], 10.8 µM (inactive); in [14], 25.8 µM (inactive); in [15] it was 16 µM (inactive). Besides, the GI50 in assay [19] is 12.6 µM (inactive); in assay [20], 16.9 µM (inactive); in assay [17], 16.1 µM (inactive); in assay [18], 13.5 µM (inactive).

Consider `Cc1ccc(-c2cs/c(=N\c3c(C)n(C)n(-c4ccccc4)c3=O)n2CCO)cc1`, for which the GI50 in assay [1] was 50.8 µM (inactive); in assay [2] it was > 100 µM (inactive); in assay [3], above 100 µM; in assay [5] it was > 100 µM (inactive); in [6] it was > 100 µM (inactive); in assay [7] it was > 100 µM (inactive). Further, the GI50 in [8] was > 100 µM (inactive); in assay [9], > 100 µM (inactive); in [12] it was 84.7 µM (inactive); in assay [13], > 100 µM (inactive); in assay [14], > 100 µM (inactive); in assay [15] it was > 100 µM (inactive). The results for the GI50 in [19], in [20] and in assay [17] were > 100 µM (inactive), > 100 µM (inactive) and 46.5 µM (inactive), respectively.

As for `CC1OC(OCC2OC(Oc3c(-c4ccc(O)cc4)oc4cc(O)cc(O)c4c3=O)C(OC3OC(C)C(O)C(O)C3O)C(O)C2O)C(O)C(O)C1O` (configuration not stated), the GI50 was > 100 µM (inactive) in [1]; > 68.9 µM (inactive) in assay [2]; above 42.3 µM in assay [3]; > 100 µM (inactive) in assay [4]; > 100 µM (inactive) in assay [5]; > 100 µM (inactive) in assay [6]. The GI50 in [7] is > 56.8 µM (inactive); in assay [8] it was > 100 µM (inactive); in [9], > 100 µM (inactive); in assay [10], > 100 µM (inactive); in [12], > 100 µM (inactive); in assay [13], > 100 µM (inactive). The GI50 is > 100 µM (inactive) in [15]; > 100 µM (inactive) in [20]; > 100 µM (inactive) in assay [16]; > 67.6 µM (inactive) in assay [17]; > 100 µM (inactive) in assay [18].

For `O=C(O)CNS(=O)(=O)c1ccc(NC(=O)c2ccc([N+](=O)[O-])cc2)cc1`, the GI50 in [1] was > 100 µM (inactive); in [2] it was > 100 µM (inactive); in assay [3] it was above 100 µM; in assay [4], > 100 µM (inactive); in [5] it was > 100 µM (inactive); in assay [6], > 100 µM (inactive). In addition, the GI50 in [7], in [8], in [9], in assay [10], in assay [12] and in [13] was > 100 µM (inactive) each time. Moreover, the GI50 in [15] was > 100 µM (inactive); in assay [20] it was > 100 µM (inactive); in [16] it was 79.6 µM (inactive); in assay [17], > 100 µM (inactive); in assay [18], > 100 µM (inactive).
